Data reported in patent publication US11872263B2, “AIMP1 protein fragment and hair growth-promoting composition containing same as active ingredient” (CUREBIO THERAPEUTICS, priority 2016, dated 2024).

Tests used:
[1] = system: dorsal hair of depilated C57BL6 mice; test: In vivo hair regrowth after depilation of dorsal skin of mice; parameters: species or system mouse; conditions: 13 days after depilation, 100 nM polypeptide, 80 μl topical once a day
Protocol: (§1) The hair of the dorsal skin of mice (7 weeks old male C57BL6, purchased from Orient Bio Inc.) was cut out with a clipper, and hair removal cream (Niclean, Ildong Pharmaceutical) was applied. The depilated area was about 2×2.5 cm. Mice were treated with 20% glycerol/PBS (control group), 3% Minoxidil (MNX, 140 mM), FGF7 (100 nM) or Neo-Pep of the present invention (polypeptide of SEQ ID NO: 1, 100 nM), respectively, once a day in 80 μl using brush, for 13 days (n=6 per group).
as §1, with “Specifically, the hair” for “The hair”, “of a mouse” for “of mice”, “group). For comparative observation, the dorsal skin of the mouse was photographed before and after the beginning of the test.” for “group).”

[2] = system: hair follicle region of skin tissue; test: Histological analysis (IHC for BrdU, β-catenin, Cytokeratin 15) of skin at Day 6 after depilation; format: in vivo, mouse; conditions: 100 nM
Protocol: A skin sample of 7 weeks old male C57BL6 mice (purchased from Orient Bio Inc.) was collected and placed in a paraffin block. IHC (Immunohistochemistry) was performed using Cytokeratin 15 antibody (Abcam), BrdU antibody (Novusbio), and β-catenin antibody.
For reference, β-catenin is a hair follicle signaling marker, Cytokeratin 15 is a hair follicle stem cell marker, and BrdU is a cell proliferation marker.
β-catenin is a very important protein for hair growth and a very important factor in follicular stem cell proliferation playing a role as a signaling marker for hair follicle cells. In addition, Cytokeratin 15 acts as a biomarker of hair follicle stem cells, and BrdU is known to be a factor that plays a role as a cell growth marker.

[3] = system: hair follicles in skin tissue of C3H/HeJ mice; test: H&E histology of skin tissue of C3H/HeJ alopecia areata mice; format: in vivo, mouse; conditions: 100 nM topical
Text: Meanwhile, in the images of the skin tissue of the mouse in FIG. 7, the skin tissue at the alopecia area and the area without alopecia around it was collected, fixed in Fekete's acid alcohol formalin and analyzed for H&E staining.
These are main characteristics used for diagnosing alopecia areata. And follicular dystrophy is a phenomenon that occurs frequently in alopecia areata, which means that hair follicles are twisted and deformed or have weak or disrupted hair shaft.

[4] = system: hair follicles of anagen phase in dorsal skin; test: H&E staining of dorsal skin sections: anagen hair follicle count and dermis thickness; format: in vivo, mouse; conditions: H&E stained dorsal skin sections, Day 13 after depilation, 100 nM
Protocol: Skin samples of 7 weeks old male C57BL6 mice (purchased from Orient Bio Inc.) were collected and placed in a cryomold using an OCT compound (Tissue-Tek) and stored at −80° C. in a freezer. After tissue sections were prepared with Microm HM 525 (Thermo Scientific), the tissue sections prepared in the slide glass were fixed with 4% paraformaldehyde for 10 minutes, washed twice with PBS for 5 minutes, and then stained with 50 μl of hematoxylin solution (Sigma Aldrich) for 6 minutes and washed with water and PBS for 5 minutes. Then, stained with eosin (Sigma Aldrich), briefly washed with water and washed with PBS for 5 min, then briefly twice with 95% ethanol and 100% ethanol, respectively. After treatment with xylene (Duksan) twice for 2 min, the stained tissue sections were covered with cover slides and fixed.
In addition, dorsal skin samples of the mice were collected and placed in a cryomold using an OCT compound (Tissue-Tek) and stored at −80° C. in a freezer. […] The number of hair follicles of anagen phase (growth phase) was counted and compared quantitatively in dorsal skin sections of each group stained with hematoxylin and eosin (H & E).

[5] = system: CD34+ hair follicle stem cells; test: In vitro hair growth assay / BrdU proliferation assay with CD34+ hair follicle stem cells; format: cell-based, mouse
Protocol: The hair of the dorsal skin of 7 weeks old male C57BL6 mice (purchased from Orient Bio Inc.) were cut with a clipper and skin tissue samples of the depilated dorsal region of the mice were collected. The collected skin tissue samples were immersed in medium using collagenase, DNase I, and hyaluronidase, and cells were isolated using Gentle MACSTM Dissociator (Miltenyi Biotec). After the cells were separated, the separated cells were incubated with a mouse CD34-Biotin antibody (Miltenyi Biotec). Cells and antibody solutions were incubated with streptavidin microbeads (Miltenyi Biotec) and then separated using LS column (Miltenyi Biotec). The separated cells were cultured in DMEM medium containing 10% FBS, 1% penicillin/streptomycin solution in humidified air of 95% 02 and 5% CO2 at 37° C.
Cell proliferation can be confirmed using the BrdU cell proliferation assay kit (Cell Signaling). Proliferation assays were performed using protocols presented by […]. Briefly, the cells were incubated with BrdU for 2 h. The primary BrdU detection antibody was incubated for 1 hour and the secondary anti-mouse IgG, HRP-conjugate antibody was incubated for 30 minutes.
A hair growth in vitro assay was performed using the Cyquant Assay (Thermo Fisher). […]

[6] = system: C3H/HeJ mice having alopecia universalis; test: Hair growth in C3H/HeJ mice with skin graft-induced alopecia areata; format: in vivo, mouse; conditions: 100 μl of 100 nM topical once daily for 14 weeks
Text: In order to confirm the effect of the polypeptide of the present invention on the human hair growth cycle, C3H/HeJ mouse (Jackson Laboratory, USA) was used as an animal model reflecting the pathological state of human alopecia areata. The advantage of using the C3H/HeJ mouse is that when full thickness skin graft is applied to an aged mouse having alopecia areata from young age, patchy alopecia develops within 8 to 10 weeks, and after 20 weeks, alopecia extends to the whole body skin and result in a chronic state of alopecia universalis.
In this test, C3H/HeJ female mice having alopecia universalis that was induced 25 weeks after skin transplantation as described above were used. Without any pretreatment such as shaving or depilation, control group (Control-treated mice, 100 μl of 20% glycerol/PBS) and Neo-Pep polypeptide treated group (Peptide-treated mice, 100 μl of 100 nM Neo-Pep polypeptide (SEQ ID NO: 1) in 20% glycerol/PBS) were treated with each test material topically around the alopecia region using brush, once daily, for 14 weeks. Control group and Neo-Pep treated group consisted of 4 mice, respectively.
Photographs were taken every 2 weeks from the beginning of the experiment.

[7] = system: β-catenin target genes AXIN, CD44 and TCF7; test: qRT-PCR of β-catenin target genes in CD34+ cells; format: cell-based, mouse; conditions: 100 nM, CD34+ cells cultured 8 hours
Protocol: In order to confirm the induction of CD34+ hair follicle stem cell proliferation through β-catenin pathway, mRNA expression levels of β-catenin target genes AXIN, CD44 and TCF7 were confirmed by the following method. Specifically, each test substance was treated and CD34+ cells were cultured for 8 hours. Then, the cultured cells were collected, RNA was isolated using GeneJET RNA purification kit (Thermo Fisher, K0731), and cDNA was synthesized with the Maxima first strand cDNA synthesis kit (Thermo Fisher, K1642). qRT-PCR was performed using each of the gene-specific primers (TCF7: 5′-[…]-3′ (SEQ ID NO: 36) and 5′-[…]-3′ (SEQ ID NO: 37), AXIN2: 5′-CTCCTTGGAGGCAAGAGC-3′ (SEQ ID NO: 38) and 5′-GGCCACGCAGCACCGCTG-3′ (SEQ ID NO: 39), CD44: 5′-[…]-3′ (SEQ ID NO: 40) and 5′-GGAGTCTTCGCTTGGGGTA-3′ (SEQ ID NO: 41)), Maxima SYBR green/ROX qPCR master mix (Thermo Fisher, K0222) and 7500 Real-time PCR system (Applied Biosystems, 2720; condition: 40 cycles, 2 step (95° C. for 15 sec, and 54° C. for 60 sec). The expression level of each gene was calculated by the ΔΔCT method.

AVLKRLEQKGAEADQIIEYLKQQVSLLKEKAILQATLREEK (Homo sapiens Neo-Pep polypeptide; AIMP1-(6-46))
dorsal hair growth compared with control group [1]: grew much more
start of anagen phase compared with control (BrdU, β-catenin, Cytokeratin 15) [2]: starts earlier
development of inflammation and deformed hair shaft compared to the control group [3]: significantly lower
dermis thickness compared with control [4]: much thicker
number of hair follicles of anagen phase compared with control [4]: more than twice as much
proliferation of CD34+ hair follicle stem cells ([5]; 1 nM, 10 nM, 100 nM and 1000 nM): induced proliferation of CD34+ hair follicle stem cells in a dose-dependent manner
inducing proliferation of CD34+ hair follicle stem cells (relative cell number) ([5]; each peptide 100 nM, 24 hours): induced proliferation
time at which hair began to grow again [6]: 11 weeks
mice with mild to moderate hair growth ([6]; 4 mice per group): 3 out of 4
mRNA expression level of AXIN, CD44 and TCF7 compared to the control group [7]: 5 fold
